From patent US10829796B2, “Bacteria identification and antimicrobial susceptibility test” (priority 2015, dated 2020)

System: bacteria in clinical bovine mastitis milk samples
Assay: Combined bacteria identification and antimicrobial susceptibility test (colour of wells, MIC) on clinical bovine mastitis milk samples
Format: cell-based
Method: Clinical bovine mastitis milk samples were collected by a vet clinic in South Island, New Zealand. Samples were stored in the freezer for several months and shipped frozen to the testing facility. In this Example, the term “clinical” means that dairy cows had clinical symptoms of an udder infection e.g. cow behaved unusual, milk clots, swollen udder among other typical symptoms. Testing was executed in microwell plate comprising of 24 wells (3×8 wells).
In addition, 20 ul of clinical mastitis sample was added to each well with a laboratory pipette.
(§1) Abbreviations • 1. 80 ul GC+10 ul Tell: 80 ul Giolitti Cantoni base broth+10 ul Tellurite solution (1%); • 2. 80 ul TSB/Esc/Fer Cit: 80 ul Tryptic soy broth containing 0.25% Esculin and 0.125% Ammonium Ferric Citrate; • 3. 80 ul TSB/Esc/Fer Cit+10 ul Genta: 80 ul Tryptic soy broth containing 0.25% Esculin and 0.125% Ammonium Ferric Citrate+10 ul of Gentamycin solution 10 mg/ml; • 4. 80 ul McC/PR25: 80 ul MacConkey broth (single strength) containing 0.0125% phenol red; and • 5. 80 ul TSB/PR25: 80 ul Tryptic soy broth containing 0.0125% phenol red. Bacteria Identification
Columns A to C and rows 1 and 2 were used for bacteria identification. A1: coagulase positive Staph; A2: Staphylococci; B1: Strep group D; B2: Strep group D; C1: general enrichment media (gram+ and gram-bacteria); C2: coliform bacteria.
Column A3 to A8: serial dilution of benzyl penicillin as potassium. Column B3 to B8: serial dilution of ceftiofur as hydrochloride. Column C3 to C8: serial dilution of cloxacillin as sodium. Antibiotic concentrations are listed as free form ranging between 4 ug/ml to 0.05 ug/ml.
Minimum inhibitory substance concentration (MIC) is here defined as the concentration if a colour change occurs between two wells (one well remains red with drug concentration 1, the other one yellow with drug concentration 2, whereas drug concentration 1 is larger than drug concentration 2) then the MIC is the value of drug concentration 1.
Table 21 indicates the microwell plate configuration #1; Drugs: Benzylpenicillin as potassium; Cloxacillin as sodium; Ceftiofur as hydrochloride; Drug concentration in each well (A3 to C8) is based on 80 μl composition+10 μl drug solution+20 μl clinical mastitis milk sample and equivalent to listed drug concentration in μg/ml; 20 ul of clinical bovine mastitis milk sample was added to each well (A1 to C8).
In addition, each well received one drop of clinical sample from a transfer pipette which was on average about 35 mg. This was determined through weighing the well plate prior and after the addition of clinical mastitis samples. This weight was then divided by 24.
as §1, with “•” for “Abbreviations •”, “red.” for “red. Bacteria Identification”
Columns A to C and rows 1 and 2 were used for bacteria identification. A1: coagulase positive Staph; A2: Staphylococci; B1: Strep Group D; B2: -; C1: general enrichment media (gram+ and gram-); C2: coliform bacteria.
Column A3 to A8: serial dilution of benzyl penicillin as potassium. Drug concentrations given as free form ranging between 4 ug/ml to 0.05 ug/ml. Column B3 to B8: serial dilution of ceftiofur as hydrochloride. Drug concentrations given as free form ranging between 4 ug/ml to 0.05 ug/ml. Column C3 to C8: serial dilution of cloxacillin as sodium. Drug concentrations given as free form ranging between 4 ug/ml to 0.05 ug/ml.

Measured: Colour of media in each well

CC1(C)S[C@@H]2[C@H](NC(=O)Cc3ccccc3)C(=O)N2[C@H]1C(=O)O [benzyl penicillin]
red: ID 1, T = 22 h, 37° C., plate configuration #1, drug 0.1 μg/ml | ID 1, T = 22 h, 37° C., plate configuration #1, drug 0.5 μg/ml | ID 1, T = 22 h, 37° C., plate configuration #1, drug 1 μg/ml | ID 1, T = 22 h, 37° C., plate configuration #1, drug 2 μg/ml | ID 1, T = 22 h, 37° C., plate configuration #1, drug 4 μg/ml | ID 3, T~7 h, 37° C., Table 34, drug 0.05 μg/ml | ID 3, T~7 h, 37° C., Table 34, drug 0.1 μg/ml | ID 3, T~7 h, 37° C., Table 34, drug 0.5 μg/ml | ID 3, T~7 h, 37° C., Table 34, drug 1 μg/ml | ID 3, T~7 h, 37° C., Table 34, drug 2 μg/ml | ID 3, T~7 h, 37° C., Table 34, drug 4 μg/ml | ID 3, T~11 h, 37° C., Table 34, drug 0.05 μg/ml | ID 3, T~11 h, 37° C., Table 34, drug 0.1 μg/ml | ID 3, T~11 h, 37° C., Table 34, drug 0.5 μg/ml | ID 3, T~11 h, 37° C., Table 34, drug 1 μg/ml | ID 3, T~11 h, 37° C., Table 34, drug 2 μg/ml | ID 3, T~11 h, 37° C., Table 34, drug 4 μg/ml | ID 5, T = 23 h, 37° C., plate configuration #2, drug 0.05 μg/ml | ID 5, T = 23 h, 37° C., plate configuration #2, drug 0.1 μg/ml | ID 5, T = 23 h, 37° C., plate configuration #2, drug 0.5 μg/ml | ID 5, T = 23 h, 37° C., plate configuration #2, drug 1 μg/ml | ID 5, T = 23 h, 37° C., plate configuration #2, drug 2 μg/ml | ID 5, T = 23 h, 37° C., plate configuration #2, drug 4 μg/ml | ID 5 to 8, T = 0 h (prior incubation, reference), plate configuration #2, drug 0.05 μg/ml | ID 5 to 8, T = 0 h (prior incubation, reference), plate configuration #2, drug 0.1 μg/ml | ID 5 to 8, T = 0 h (prior incubation, reference), plate configuration #2, drug 0.5 μg/ml
orange: ID 1, T = 22 h, 37° C., plate configuration #1, drug 0.05 μg/ml | ID 4, T = 22 h, 37° C., plate configuration #1, drug 1 μg/ml | ID 4, T = 22 h, 37° C., plate configuration #1, drug 2 μg/ml
yellow: ID 2, T = 48 h, 37° C., plate configuration #1, drug 0.05 μg/ml | ID 2, T = 48 h, 37° C., plate configuration #1, drug 0.1 μg/ml | ID 2, T = 48 h, 37° C., plate configuration #1, drug 0.5 μg/ml | ID 2, T = 48 h, 37° C., plate configuration #1, drug 1 μg/ml | ID 2, T = 48 h, 37° C., plate configuration #1, drug 2 μg/ml | ID 2, T = 48 h, 37° C., plate configuration #1, drug 4 μg/ml | ID 3, T = 22 h, 37° C., plate configuration #1, drug 0.05 μg/ml | ID 3, T = 22 h, 37° C., plate configuration #1, drug 0.1 μg/ml | ID 3, T = 22 h, 37° C., plate configuration #1, drug 0.5 μg/ml | ID 3, T = 22 h, 37° C., plate configuration #1, drug 1 μg/ml | ID 3, T = 22 h, 37° C., plate configuration #1, drug 2 μg/ml | ID 3, T = 22 h, 37° C., plate configuration #1, drug 4 μg/ml | ID 3, T = 23 h, 37° C., Table 34, drug 0.05 μg/ml | ID 3, T = 23 h, 37° C., Table 34, drug 0.1 μg/ml | ID 3, T = 23 h, 37° C., Table 34, drug 0.5 μg/ml | ID 3, T = 23 h, 37° C., Table 34, drug 1 μg/ml | ID 3, T = 23 h, 37° C., Table 34, drug 2 μg/ml | ID 3, T = 23 h, 37° C., Table 34, drug 4 μg/ml | ID 4, T = 22 h, 37° C., plate configuration #1, drug 0.05 μg/ml | ID 4, T = 22 h, 37° C., plate configuration #1, drug 0.1 μg/ml | ID 4, T = 22 h, 37° C., plate configuration #1, drug 0.5 μg/ml | ID 4, T = 22 h, 37° C., plate configuration #1, drug 4 μg/ml
